Here are results for two compounds from patent publication US10472420B2, “Immune response modifier conjugates” (3M INNOVATIVE PROPERTIES COMPANY, priority 2006, dated 2019).

The structures appear in SMILES notation.

As a reminder, the melting point is the temperature of the solid-liquid transition.

Take `CCOCc1nc2c(N)nc3cc(OCCCCCCNC(=O)CCS)ccc3c2n1CC(C)(C)NS(C)(=O)=O` [IRM10, N-{6-[(4-Amino-2-(ethoxymethyl)-1-{2-methyl-2-[(methylsulfonyl)amino]propyl}-1H-imidazo[4,5-c]quinolin-7-yl)oxy]hexyl}-3-mercaptopropanamide]: the melting point lay in the range of 152 to 157 °C.

As for `CCOCc1nc2c(N)nc3ccccc3c2n1CC(C)(C)NC(=O)CCC(=O)NN` [IRM5, N-{2-[4-Amino-2-(ethoxymethyl)-1H-imidazo[4,5-c]quinolin-1-yl]-1,1-dimethylethyl}-4-hydrazino-4-oxobutanamide], the melting point lay within 203 to 204.6 °C.
